Results reported in US20230174662A1, “METHODS OF TREATING CASTRATE-RESISTANT PROSTATE CANCER” (FONDAZIONE PER L'ISTITUTO ONCOLOGICO DI RICERCA (IOR), priority 2019, published 2023).

Assays:
CDCP1 in LNCaP ADS cells = conditions: DHT stimulation 16 h after 2 days in FAD
Description: C. Left panel, Quantitative real time PCR analysis of CDCP1 mRNA levels in LNCaP grown in full media, full androgen depreviation (FAD) and stimulated with dihydrotestosterone (DHT 1 μM, 16 h) after grown for 2 days in FAD. Right panel, Western blot analysis of CDCP1, p-SRC, SRC, p-AKT, AKT, p-ERK1/2 and ERK1/2 in LNCaP grown in full media, FAD and stimulated with DHT (1 μM, 16 h) after grown for 2 days in FAD.
Tissue and cell lysates were prepared with RIPA buffer (Catalog #9806, Cell Signaling Technology) with PMSF (Phenylmethanesulfonyl fluoride; Catalog #329-98-6, Sigma). Protein concentrations of the lysates were measured by Pierce BCA Protein Assay Kit (Catalog #23225, Thermo Scientific). The lysates were then resolved by SDS-PAGE and immunoblotted with the indicated antibodies.
RNA was extracted using TRIzol® Plus RNA Purification Kit (Catalog #12183555, Life technologies). 1 μg of total RNA was used for cDNA synthesis using SuperScript® III Platinum® One-Step qRT-PCR Kit (Catalog #11732-020, Life technologies). […] All qRT-PCR data presented was normalized using GAPDH, HRPT or 18S rRNA.

[1] = test system: CDCP1 in LNCaP xenografts; experiment: Western blot of CDCP1 in LNCaP xenografts; assay type: in vivo, mouse; conditions: Enzalutamide alone
Excerpt: (§1) FIG. 7A. Left panel, Quantification of fold change in growth by crystal violet in LNCaP kept in full media and in LNCaP kept in full media and treated with mAb-CUB4. Right panel, Quantification of fold change in growth by crystal violet in LNCaP kept in FAD and in LNCaP kept in FAD and treated with mAb-CUB4. B. Left panel, Xenografts tumour growth (mm3) of LNCaP cell line untreated, treated with Enzalutamide, Immuno-liposome and treated with the combination of Enzalutamide and immuno-liposome. Right panel, quantification of fold change in protein levels of Cleaved Caspase 3 in LNCaP xenografts groups. C. Western blot analysis of CDCP1 expression, p-SRC and Cleaved Caspase 3 in LNCaP xenografts groups.
(§2) These findings were further validated in LNCaP-abl cells, an androgen insensitive cell line. […] Given the fact that CDCP1 expression is elevated by androgen deprivation, we postulated that targeting CDCP1 could serve as a powerful tool to treat prostate cancers treated with enzalutamide. […] Since senescence works as a double edge sword that may stimulate cancer cell growth in certain conditions, we decided to develop a novel anti-CDCP1 dual steal immunoliposome carrying doxorubicin (anti-CDCP1 ILs) to eliminate the CDCP1 overexpressing resistant cells.

LNCaP xenografts = experiment: LNCaP xenograft tumour growth in SCID mice; assay type: in vivo, mouse; conditions: single agent, LNCaP s.c. in SCID mice, one week; Enzalutamide 10 mg/kg
Excerpt: as §1, §2

Row | Compound | CDCP1 expression and protein levels (CDCP1 in LNCaP ADS cells) | levels of CDCP1 by Western blot [1] | effect on tumor growth (LNCaP xenografts)
1 | C[C@]12CCC(=O)C[C@@H]1CC[C@@H]1[C@@H]2CC[C@]2(C)[C@@H](O)CC[C@@H]12 [DHT, 5α-Dihydrotestosterone] | reduced its expression and protein levels | – | –
2 | CNC(=O)c1ccc(N2C(=S)N(c3ccc(C#N)c(C(F)(F)F)c3)C(=O)C2(C)C)cc1F [Enzalutamide, 4-[3-[4-cyano-3-(trifluoromethyl)phenyl]-5,5-dimethyl-4-oxo-2-sulfanylideneimidazolidin-1-yl]-2-fluoro-N-methylbenzamide] | – | significant increased levels of CDCP1 | minor effect on tumor growth
